Measurements from PMC7084345, “Differential Inhibitory Actions of Multitargeted Tyrosine Kinase Inhibitors on Different Ionic Current Types in Cardiomyocytes” (International Journal of Molecular Sciences, 2020).

Target: T1, KV7.1 (KCNQ1) channel, IK(S) (Rattus norvegicus, UniProt Q9Z0N7)
T1 construct: native IK(S) in H9c2 cells
T1 sequence (Q9Z0N7 1-669): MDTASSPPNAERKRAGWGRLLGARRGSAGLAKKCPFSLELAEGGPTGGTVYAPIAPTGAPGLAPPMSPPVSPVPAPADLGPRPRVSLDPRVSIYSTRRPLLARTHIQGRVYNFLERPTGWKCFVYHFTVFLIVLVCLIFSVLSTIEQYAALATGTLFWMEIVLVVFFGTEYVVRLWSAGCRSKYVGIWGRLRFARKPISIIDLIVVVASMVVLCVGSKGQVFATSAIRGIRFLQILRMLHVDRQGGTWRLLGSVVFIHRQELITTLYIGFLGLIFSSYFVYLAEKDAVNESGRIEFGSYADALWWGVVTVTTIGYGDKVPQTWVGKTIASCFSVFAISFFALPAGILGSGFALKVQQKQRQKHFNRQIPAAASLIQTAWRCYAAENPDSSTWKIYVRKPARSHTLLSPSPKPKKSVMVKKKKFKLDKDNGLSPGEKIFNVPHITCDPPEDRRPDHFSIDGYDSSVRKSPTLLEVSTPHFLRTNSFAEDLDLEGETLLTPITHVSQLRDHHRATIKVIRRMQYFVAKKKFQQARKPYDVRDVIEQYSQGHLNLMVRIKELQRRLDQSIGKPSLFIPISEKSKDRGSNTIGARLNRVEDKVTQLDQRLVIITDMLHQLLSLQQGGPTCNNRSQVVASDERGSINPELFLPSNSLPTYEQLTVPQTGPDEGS
Test: whole-cell patch clamp of native IK(S) in H9c2 cells
Format: cell-based

CS(=O)(=O)CCNCc1ccc(-c2ccc3ncnc(Nc4ccc(OCc5cccc(F)c5)c(Cl)c4)c3c2)o1 [LAP, lapatinib]
IC50: 1840 nM
